Marks after values point to notes of the source that are not given here.
System: Chinese Hamster Ovary (CHO) cell
Test: MTT cytotoxicity in CHO cells of the test compound with and without activation by NADPH-supplemented rat liver microsomes
Assay type: cell-based
Details: for IC50: Cricetulus griseus, CHO, cells exposed 24 hours, MTT, mean+sd for three experiments
Protocol: Test compound activation by CYP enzymes was carried out using NADPH supplemented rat liver microsomes. Incubation mixtures comprised microsomal protein (1 mg/ml), reduced-nicotinamide adenine dinucleotide phosphate (NADPH, 10 mM) and phosphate buffer (pH7.4, 100 mM). Test compound (0.01–100 μM final concentration) in DMSO (20 μl) was added to the microsomal incubation mixtures (0.5 ml) and incubated for 60 min at 37 C. Control incubates contained test compound and microsomal incubation mixture terminated at 0 time. All incubations were terminated by addition of an equal volume of ice-cold acetonitrile and microfuged for 3 min. Aliquots of the supernatant were added to cells in culture and cytotoxicity determined as described below.
Chinese Hamster Ovary (CHO) cell were grown in MEM supplemented with 10% dialysed FBS and G418 (400 μg/ml). All cells were seeded at an initial density of 1000 cells/well in 96-well-plates, incubation at 37° C. for 24 hours. Aliquots (0.1 ml) of the test compound/microsomal/acetonitrile supernatnant was then added to the CHO cells. Cells were then incubated for 24 hours at 37° C., 5% CO2. After this time period MTT (50 μl; 2 mg/ml stock solution) was added to each well and cells were incubated for a further 4 hours. During this time period MTT, a hydrogen acceptor tetrazolium salt, is reduced to formazan dye by mitochondrial dehydrogenase of viable cells. The media was aspirated from cells and DMSO (100 μl/well) added to solubilise the coloured formazan dye. Absorbance of the formazan dye in the 96-well-plates was then determined at 550 nm. The effect of microsomal activation by the test compound on the arrest of CHO cell growth could be determined by comparing the IC50 (concentration that inhibited cell growth by 50%) with and without microsomal incubation.

In the case of COc1ccc2[nH]c(C(=O)N3CC(CCl)c4c3ccc3ccccc43)cc2c1 (stereo not drawn) [Compound 1.8, 1-(Chloromethyl)-3-[(5-methoxyindol-2-yl)carbonyl]-1,2-dihydro-3H-benz[e]indole], the IC50 (control incubate terminated at 0 time (no microsomal activation)) is reported as 1500 ± 530 nM, the IC50 (supernatant after 60 min incubation with NADPH fortified rat liver microsomes) is reported as 100 nM and the “AF (activity factor, ratio of IC50 cytotoxicity values)” value (ratio of CHO IC50 without and with microsomal activation) is reported as 15.0*.
